Assay results from patent publication US20240317724A1, “3,4-METHYLENEDIOXYMETHAMPHETAMINE AND RELATED PS[…] USES THEREOF” (Terran Biosciences Inc., priority 2021, published 2024).

Columns and labels:
[1] = Single oral (PO) dose pharmacokinetics study in rats; plasma concentration of MDMA (and prodrug) by LC-MS/MS; conditions: for AUC(0-t): po
[2] = Single intravenous (IV) dose pharmacokinetics study in rats; plasma concentration of MDMA by LC-MS/MS
[3] = 0.50 h after oral dosing of prodrug 10 mg/Kg, male SD rats
[4] = 1.00 h after oral dosing of prodrug 10 mg/Kg, male SD rats
[5] = 2.00 h after oral dosing of prodrug 10 mg/Kg, male SD rats
[6] = 4.00 h after oral dosing of prodrug 10 mg/Kg, male SD rats
[7] = 7.00 h after oral dosing of prodrug 10 mg/Kg, male SD rats
[8] = 24.0 h after oral dosing of prodrug 10 mg/Kg, male SD rats
[9] = male, Sprague-Dawley, rat, plasma, iv, 1 mg/kg

Row | SMILES | Mean plasma concentration of metabolite MDMA [1, 3] | Mean plasma concentration of metabolite MDMA [1, 4] | Mean plasma concentration of metabolite MDMA [1, 5] | Mean plasma concentration of metabolite MDMA [1, 6] | Mean plasma concentration of metabolite MDMA [1, 7] | Mean plasma concentration of metabolite MDMA [1, 8] | Tlast ([2]; MDMA dosed IV 1 mg/Kg, male SD rats, analyte MDMA, median) [h] | Vd [2, 9] [L/kg] | clearance [2, 9] [mL/min/kg] | Tlast ([1]; MDMA dosed PO 10 mg/Kg, male SD rats, analyte MDMA, median) [h] | bioavailability ([1]; male, Sprague-Dawley, rat, plasma, oral, 10 mg/kg) [%] | AUC(0-t) ([1]; male, Sprague-Dawley, rat, plasma, 10 mg/kg, AUC0-2, MDMA dosed PO 10 mg/Kg, male SD rats, analyte MDMA, mean) [ng·h/mL] | AUC(0-t) ([1]; male, Sprague-Dawley, rat, plasma, 10 mg/kg, AUC0-24, MDMA dosed PO 10 mg/Kg, male SD rats, analyte MDMA, mean) [ng·h/mL] | AUC(0-t) ([1]; male, Sprague-Dawley, rat, plasma, 10 mg/kg, AUC0-last, MDMA dosed PO 10 mg/Kg, male SD rats, analyte MDMA, mean) [ng·h/mL] | Tlast of MDMA prodrug ([1]; oral dosing of prodrug 10 mg/Kg, male SD rats, analyte prodrug, mean) [h]
1 | CC(Cc1ccc2c(c1)OCO2)N(C)C(=O)CCCC(=O)O (stereo not drawn) [Glutarate Prodrug of MDMA, 4-{[2-(2H-1,3-Benzodioxol-5-yl)-1-methyl-ethyl]-N-methylcarbamoyl}butyric acid] | BLQ (BLQ: Below Lower Limit of Quantification (0.5 ng/mL)) | BLQ (BLQ: Below Lower Limit of Quantification (0.5 ng/mL)) | BLQ (BLQ: Below Lower Limit of Quantification (0.5 ng/mL)) | BLQ (BLQ: Below Lower Limit of Quantification (0.5 ng/mL)) | BLQ (BLQ: Below Lower Limit of Quantification (0.5 ng/mL)) | BLQ (BLQ: Below Lower Limit of Quantification (0.5 ng/mL)) | – | – | – | – | – | – | – | – | –
2 | CC(Cc1ccc2c(c1)OCO2)N(C)C(=O)C1CCOC1 (stereo not drawn) [N-[2-(2H-1,3-Benzodioxol-5-yl)-1-methyl-ethyl]-N-methyl-tetrahydro-3-furamide] | BLQ (BLQ: Below Lower Limit of Quantification (0.5 ng/mL)) | BLQ (BLQ: Below Lower Limit of Quantification (0.5 ng/mL)) | BLQ (BLQ: Below Lower Limit of Quantification (0.5 ng/mL)) | BLQ (BLQ: Below Lower Limit of Quantification (0.5 ng/mL)) | BLQ (BLQ: Below Lower Limit of Quantification (0.5 ng/mL)) | BLQ (BLQ: Below Lower Limit of Quantification (0.5 ng/mL)) | – | – | – | – | – | – | – | – | –
3 | CNC(C)Cc1ccc2c(c1)OCO2 (stereo not drawn) [MDMA, 3,4-Methylenedioxymethamphetamine] | – | – | – | – | – | – | 2.00 | 8.18 | 274 | 7.00 | 104 | 638 | 1810 | 1710 | –
4 | CC(=O)N(C)C(C)Cc1ccc2c(c1)OCO2 (stereo not drawn) [Methyl amide (acetyl) prodrug of MDMA, N-[2-(2H-1,3-Benzodioxol-5-yl)-1-methyl-ethyl]-N-methylacetamide] | BLQ (BLQ: Below Lower Limit of Quantification (0.5 ng/mL)) | BLQ (BLQ: Below Lower Limit of Quantification (0.5 ng/mL)) | BLQ (BLQ: Below Lower Limit of Quantification (0.5 ng/mL)) | BLQ (BLQ: Below Lower Limit of Quantification (0.5 ng/mL)) | BLQ (BLQ: Below Lower Limit of Quantification (0.5 ng/mL)) | BLQ (BLQ: Below Lower Limit of Quantification (0.5 ng/mL)) | – | – | – | – | – | – | – | – | –
5 | CC(Cc1ccc2c(c1)OCO2)N(C)C(=O)OC1COC1 (stereo not drawn) [Oxetane-3-yl carbamate prodrug of MDMA, Oxetan-3-yl N-[2-(1,3-benzodioxol-5-yl)-1-methyl-ethyl]-N-methyl-carbamate] | BLQ (BLQ: Below Lower Limit of Quantification (0.5 ng/mL)) | BLQ (BLQ: Below Lower Limit of Quantification (0.5 ng/mL)) | BLQ (BLQ: Below Lower Limit of Quantification (0.5 ng/mL)) | BLQ (BLQ: Below Lower Limit of Quantification (0.5 ng/mL)) | BLQ (BLQ: Below Lower Limit of Quantification (0.5 ng/mL)) | BLQ (BLQ: Below Lower Limit of Quantification (0.5 ng/mL)) | – | – | – | – | – | – | – | – | –
6 | CC(Cc1ccc2c(c1)OCO2)N(C)C(=O)C1(C)CCOCC1 (stereo not drawn) [N-[2-(2H-1,3-Benzodioxol-5-yl)-1-methylethyl]-N-methyl-4-methyltetrahydro-2H-pyran-4-carboxamide] | BLQ (BLQ: Below Lower Limit of Quantification (0.5 ng/mL)) | BLQ (BLQ: Below Lower Limit of Quantification (0.5 ng/mL)) | BLQ (BLQ: Below Lower Limit of Quantification (0.5 ng/mL)) | BLQ (BLQ: Below Lower Limit of Quantification (0.5 ng/mL)) | BLQ (BLQ: Below Lower Limit of Quantification (0.5 ng/mL)) | BLQ (BLQ: Below Lower Limit of Quantification (0.5 ng/mL)) | – | – | – | – | – | – | – | – | –
7 | CC(C)[C@H](N)C(=O)N(C)C(C)Cc1ccc2c(c1)OCO2 (stereo partly drawn) [Valine prodrug of MDMA, (2S)-2-amino-N-[2-(1,3-benzodioxol-5-yl)-1-methyl-ethyl]-N,3-dimethyl-butanamide] | BLQ (BLQ: Below Lower Limit of Quantification (0.5 ng/mL)) | BLQ (BLQ: Below Lower Limit of Quantification (0.5 ng/mL)) | BLQ (BLQ: Below Lower Limit of Quantification (0.5 ng/mL)) | BLQ (BLQ: Below Lower Limit of Quantification (0.5 ng/mL)) | BLQ (BLQ: Below Lower Limit of Quantification (0.5 ng/mL)) | BLQ (BLQ: Below Lower Limit of Quantification (0.5 ng/mL)) | – | – | – | – | – | – | – | – | –
8 | CC(Cc1ccc2c(c1)OCO2)N(C)C(=O)[C@@H](N)CCCCN (stereo partly drawn) [Lysine prodrug of MDMA, (2S)-2,6-diamino-N-[2-(1,3-benzodioxol-5-yl)-1-methyl-ethyl]-N-methyl-hexanamide] | BLQ (BLQ: Below Lower Limit of Quantification (0.5 ng/mL)) | BLQ (BLQ: Below Lower Limit of Quantification (0.5 ng/mL)) | BLQ (BLQ: Below Lower Limit of Quantification (0.5 ng/mL)) | BLQ (BLQ: Below Lower Limit of Quantification (0.5 ng/mL)) | BLQ (BLQ: Below Lower Limit of Quantification (0.5 ng/mL)) | BLQ (BLQ: Below Lower Limit of Quantification (0.5 ng/mL)) | – | – | – | – | – | – | – | – | 24.0
9 | CC(C)OC(=O)N(C)C(C)Cc1ccc2c(c1)OCO2 (stereo not drawn) [Isopropyl carbamate prodrug of MDMA, isopropyl N-[2-(1,3-benzodioxol-5-yl)-1-methyl-ethyl]-N-methyl-carbamate] | BLQ (BLQ: Below Lower Limit of Quantification (0.5 ng/mL)) | BLQ (BLQ: Below Lower Limit of Quantification (0.5 ng/mL)) | BLQ (BLQ: Below Lower Limit of Quantification (0.5 ng/mL)) | BLQ (BLQ: Below Lower Limit of Quantification (0.5 ng/mL)) | BLQ (BLQ: Below Lower Limit of Quantification (0.5 ng/mL)) | BLQ (BLQ: Below Lower Limit of Quantification (0.5 ng/mL)) | – | – | – | – | – | – | – | – | –
10 | CC(Cc1ccc2c(c1)OCO2)N(C)C(=O)C1CCOCC1 (stereo not drawn) [Pyran amide prodrug of MDMA, N-[2-(2H-1,3-Benzodioxol-5-yl)-1-methyl-ethyl]-N-methyl-tetrahydro-2H-pyran-4-carboxamide] | BLQ (BLQ: Below Lower Limit of Quantification (0.5 ng/mL)) | BLQ (BLQ: Below Lower Limit of Quantification (0.5 ng/mL)) | BLQ (BLQ: Below Lower Limit of Quantification (0.5 ng/mL)) | BLQ (BLQ: Below Lower Limit of Quantification (0.5 ng/mL)) | BLQ (BLQ: Below Lower Limit of Quantification (0.5 ng/mL)) | BLQ (BLQ: Below Lower Limit of Quantification (0.5 ng/mL)) | – | – | – | – | – | – | – | – | –
11 | CCOC(=O)N(C)C(C)Cc1ccc2c(c1)OCO2 (stereo not drawn) [Ethyl carbamate prodrug of MDMA, Ethyl N-[2-(1,3-benzodioxol-5-yl)-1-methyl-ethyl]-N-methyl-carbamate] | BLQ (BLQ: Below Lower Limit of Quantification (0.5 ng/mL)) | BLQ (BLQ: Below Lower Limit of Quantification (0.5 ng/mL)) | BLQ (BLQ: Below Lower Limit of Quantification (0.5 ng/mL)) | BLQ (BLQ: Below Lower Limit of Quantification (0.5 ng/mL)) | BLQ (BLQ: Below Lower Limit of Quantification (0.5 ng/mL)) | BLQ (BLQ: Below Lower Limit of Quantification (0.5 ng/mL)) | – | – | – | – | – | – | – | – | –
12 | CC(Cc1ccc2c(c1)OCO2)N(C)C(=O)OC(C)(C)C (stereo not drawn) [Tert-butyl carbamate prodrug of MDMA, tert-butyl N-[2-(1,3-benzodioxol-5-yl)-1-methyl-ethyl]-N-methyl-carbamate] | BLQ (BLQ: Below Lower Limit of Quantification (0.5 ng/mL)) | BLQ (BLQ: Below Lower Limit of Quantification (0.5 ng/mL)) | BLQ (BLQ: Below Lower Limit of Quantification (0.5 ng/mL)) | BLQ (BLQ: Below Lower Limit of Quantification (0.5 ng/mL)) | BLQ (BLQ: Below Lower Limit of Quantification (0.5 ng/mL)) | BLQ (BLQ: Below Lower Limit of Quantification (0.5 ng/mL)) | – | – | – | – | – | – | – | – | –
